From ChEMBL document CHEMBL1136597, “A structure-permeability study of small drug-like molecules” (Bioorg Med Chem Lett, 2003)

Assays:
[1] = Distribution coefficient of octanol and phosphate buffered saline at pH 7.4; format: physicochemical; settings: read-out: Log Doct/PBS
[2] = Permeability directional ratio (PB-A/PA-B) in Caco-2 cell; format: ADME, cell-based; settings: human, read-out: PDR
[3] = Partition coefficient (logD7.4) measured using octanol and PBS at pH7.4; format: physicochemical; settings: pH 7.4, read-out: LogD7.4

logD [1]	efflux ratio [2]	logD [3]	SMILES
-1.03	3		N=C(N)c1cccc(Cc2ncccn2)c1
		1.01	N#Cc1cccc(Cn2ccnc2)c1
-0.72	3		O=C(O)c1cccc(Cn2cnc3ccccc32)c1
		-1.65	O=C(O)c1ccc(Cn2cccn2)cc1
		-2.37	O=C(O)Cc1ccc(Cn2ccnc2)cc1
-2.1	1		O=C(O)c1ccc(Cn2ccnc2)cc1
		1.74	N#Cc1cccc(Cn2cccn2)c1
		-0.77	NCc1cccc(Cn2cccn2)c1
		-0.01	NC(=O)c1cccc(Cn2ccnc2)c1
		0.28	NC(=O)c1cccc(Cc2ncccn2)c1
		-1.98	O=C(O)c1cccc(Cc2ncccn2)c1
		-1.62	O=C(O)c1cccc(Cn2cccn2)c1
		0.71	NC(=O)c1cccc(Cn2cccn2)c1
		1.7	NC(=O)c1cccc(Cn2cnc3ccccc32)c1

Continued, compound first:

SMILES	logD [1]	efflux ratio [2]	logD [3]
O=S(=O)(O)c1ccc(Cn2cnc3ccccc32)cc1	1.78	7	
NCc1cccc(Cc2ncccn2)c1			-1.11
Nc1cccc(Cn2cnc3ccccc32)c1	1.92		
c1cnc(Cc2cccc(-c3nn[nH]n3)c2)nc1		20	-1.28
c1ccc(Cn2cnc3ccccc32)cc1			2.91
N#Cc1cccc(Cn2cnc3ccccc32)c1			2.47
NCc1cccc(Cn2cnc3ccccc32)c1			0.21
O=C(O)Cc1ccc(Cn2cnc3ccccc32)cc1			-1.13
O=C(O)Cc1ccc(Cn2cccn2)cc1			-1.8
O=C(O)c1ccc(Cc2ncccn2)cc1			-2.2
c1ccc(-c2nn[nH]n2)c(Cn2cnc3ccccc32)c1		180	
CS(=O)(=O)Nc1cccc(Cn2cnc3ccccc32)c1	2.08		
N#Cc1cccc(Cc2ncccn2)c1			1.46
NS(=O)(=O)c1ccc(Cn2cnc3ccccc32)cc1			1.04
c1ccc2c(c1)ncn2Cc1ccc(-c2nn[nH]n2)cc1		129	
O=C(O)c1ccc(Cn2cnc3ccccc32)cc1			-0.61
c1ccc(Cn2ccnc2)cc1 [BENZYLIMIDAZOLE]			1.78
c1cc(Cn2cnc3ccccc32)cc(-c2nn[nH]n2)c1		145	0.27
